This is an account of results in article PMC12220852, “An adamantane‐based ligand as a novel chemical tool for thermosensory TRPM8 channel therapeutic modulation” (The Febs Journal, 2025).

The nature of series [1]: Metabolic stability in mouse plasma. The class given is in vitro ADME. The note with it: after 1 h at 37 °C, 100 μM substrate. As to the method: Because of the lack of systemic activity of compound 23, we evaluated the in vitro plasmatic and hepatic metabolic stability. To this aim, compound 23 was exposed to mouse plasma and mouse liver microsome (MLM) fractions, and the residual substrate was measured after 1 h. Under these conditions, the residual substrate was about 97% and 90% in plasma and microsomes, respectively, denoting that this molecule suffers from mild hydrolysis of the ester group.
The standard incubation mixture (100 μL final volume) was carried out by dissolving the tested substrate (100 μM) in DMSO (5% final volume) in preincubated plasma at 37 °C. The mixture was shaken for 60 min at 37 °C. Control incubations were carried out without substrate. Each incubation was stopped by addition of 200 μL of ice‐cold acetonitrile, vortexed, and centrifuged at 13 000 r.p.m. for 10 min. The supernatants were analyzed by LC‐UV [68].
The metabolic stability of the compound 23 was determined in vitro by measuring the residual peak area after incubation by LC‐UV analysis. Samples were further processed by LC‐HRMS equipment for metabolite profiling. Raw data files were processed using both XCALIBUR® and COMPOUND DISCOVERER 3.2® software (Thermo Scientific) using a customized workflow for the detection and identification of the expected and unknown metabolites (Fig. S80).

The subject of series [2] is WS‐12‐evoked action potentials in primary cultures of murine DRG sensory neurons. Put plainly: Multielectrode array (MEA): WS-12-evoked action potential firing in DRG sensory neurons. The series is classed as cell-based. Conditions: Mus musculus, Neuron; 0.43 μM compound, 1 μM WS-12, MEA, P2/P1; read-out: inhibition of WS‐12‐induced action potential firing. The protocol:
Complementarily, we examined the effect of compound 23 on WS‐12‐evoked action potentials in primary cultures of murine DRG sensory neurons. For this task, we recorded neuronal excitability using multielectrode arrays (MEAs). […] A protocol of two sequential pulses of WS‐12 interspersed with a washing pulse was applied to correct for channel desensitization (Fig. 7A, upper recording). Compounds 23 and AMTB (0.43 and 10 μM, respectively) were applied 1 min before and during the second WS‐12 pulse (Fig. 7A, second, third, and fourth recordings). As depicted in Fig. 7B, compound 23 virtually abolished action potential firings induced by WS‐12 application in murine primary afferent neurons (≥ 75%). Thus, compound 23 appears to be a potent inhibitor of WS12‐evoked firing frequency, even surpassing the efficacy of AMTB […] (Fig. 7B).
Primary cultures of neonatal dorsal root ganglia were used for multielectrode array (MEA) and patch‐clamp experiments following established methodologies previously described. Neonatal dorsal root ganglia (DRGs) were obtained from Wistar rats (3–5 days old) and were isolated and digested with 0.25% (w/v) collagenase (type IA) in DMEM GlutaMax with 1% (v/v) penicillin/streptomycin (P/S) solution for 1 h at 37 °C in a 5% CO2 Thermo Scientific incubator. […]

The inhibition is the drop in the measured response relative to a control, in per cent. For `O=C(COC(=O)c1ccccc1-c1ccccc1)NC12CC3CC(CC(C3)C1)C2` [Compound 23, 2‐((3S,5S,7S)‐adamantan‐1‐ylamino)‐2‐oxoethyl [1,1′‐biphenyl]‐2‐carboxylate], the “residual substrate in mouse plasma” value in series [1] is given as “about 97%”. Further, the inhibition at 0.43 µM in series [2] was at least 75%.
